# Laboratory results published in US6673549B1, “Genes expressed in C3A liver cell cultures treated with steroids” (Incyte Corporation, priority 2000, dated 2004).
# Key:
# human C3A liver cells = assay: Microarray differential gene expression in human C3A liver cell cultures treated with steroids; assay type: cell-based
# [1] = intranasal; cited from earlier work
structure (smiles),measurement,setting,value
C[C@H]1C[C@H]2[C@@H]3CCC4=CC(=O)C=C[C@]4(C)[C@@]3(Cl)[C@@H](O)C[C@]2(C)[C@@]1(O)C(=O)CO [beclomethasone],Ave DE [log2] (C3A treated with steroid),human C3A liver cells; Clone ID 400654,1.06 log2
same,Ave DE [log2] (C3A treated with steroid),human C3A liver cells; Clone ID 517374,0.40 log2
same,Ave DE [log2] (C3A treated with steroid),human C3A liver cells; Clone ID 615776,1.01 log2
same,Ave DE [log2] (C3A treated with steroid),human C3A liver cells; Clone ID 654246,−0.95 log2
same,Ave DE [log2] (C3A treated with steroid),human C3A liver cells; Clone ID 668460,1.23 log2
same,Ave DE [log2] (C3A treated with steroid),human C3A liver cells; Clone ID 963331,−1.01 log2
same,Ave DE [log2] (C3A treated with steroid),human C3A liver cells; Clone ID 1275616,0.94 log2
same,Ave DE [log2] (C3A treated with steroid),human C3A liver cells; Clone ID 1323616,1.09 log2
same,Ave DE [log2] (C3A treated with steroid),human C3A liver cells; Clone ID 1329625,0.35 log2
same,Ave DE [log2] (C3A treated with steroid),human C3A liver cells; Clone ID 1573840,0.97 log2
same,Ave DE [log2] (C3A treated with steroid),human C3A liver cells; Clone ID 1604437,0.47 log2
same,Ave DE [log2] (C3A treated with steroid),human C3A liver cells; Clone ID 1662870,−0.76 log2
same,Ave DE [log2] (C3A treated with steroid),human C3A liver cells; Clone ID 1697719,−0.69 log2
same,Ave DE [log2] (C3A treated with steroid),human C3A liver cells; Clone ID 1723834,0.47 log2
same,Ave DE [log2] (C3A treated with steroid),human C3A liver cells; Clone ID 1857044,0.61 log2
same,Ave DE [log2] (C3A treated with steroid),human C3A liver cells; Clone ID 1876829,−1.00 log2
same,Ave DE [log2] (C3A treated with steroid),human C3A liver cells; Clone ID 1951845,1.01 log2
same,Ave DE [log2] (C3A treated with steroid),human C3A liver cells; Clone ID 1995520,0.82 log2
same,Ave DE [log2] (C3A treated with steroid),human C3A liver cells; Clone ID 2046717,0.98 log2
same,Ave DE [log2] (C3A treated with steroid),human C3A liver cells; Clone ID 2086783,−0.88 log2
same,Ave DE [log2] (C3A treated with steroid),human C3A liver cells; Clone ID 2095329,−0.99 log2
same,Ave DE [log2] (C3A treated with steroid),human C3A liver cells; Clone ID 2285181,−0.88 log2
same,Ave DE [log2] (C3A treated with steroid),human C3A liver cells; Clone ID 2287703,−0.99 log2
same,Ave DE [log2] (C3A treated with steroid),human C3A liver cells; Clone ID 2287724,−1.05 log2
same,Ave DE [log2] (C3A treated with steroid),human C3A liver cells; Clone ID 2294968,−0.73 log2
same,Ave DE [log2] (C3A treated with steroid),human C3A liver cells; Clone ID 2372040,−1.05 log2
same,Ave DE [log2] (C3A treated with steroid),human C3A liver cells; Clone ID 2430165,1.04 log2
same,Ave DE [log2] (C3A treated with steroid),human C3A liver cells; Clone ID 2506425,0.88 log2
same,Ave DE [log2] (C3A treated with steroid),human C3A liver cells; Clone ID 2636759,0.81 log2
same,Ave DE [log2] (C3A treated with steroid),human C3A liver cells; Clone ID 2695371,0.51 log2
same,Ave DE [log2] (C3A treated with steroid),human C3A liver cells; Clone ID 2947188,−1.02 log2
same,Ave DE [log2] (C3A treated with steroid),human C3A liver cells; Clone ID 3047143,1.10 log2
same,Ave DE [log2] (C3A treated with steroid),human C3A liver cells; Clone ID 3057272,0.83 log2
same,Ave DE [log2] (C3A treated with steroid),human C3A liver cells; Clone ID 3528232,0.38 log2
same,Ave DE [log2] (C3A treated with steroid),human C3A liver cells; Clone ID 3687607,1.03 log2
same,Ave DE [log2] (C3A treated with steroid),human C3A liver cells; Clone ID 3960194,1.00 log2
same,Ave DE [log2] (C3A treated with steroid),human C3A liver cells; Clone ID 3973687,1.23 log2
same,Ave DE [log2] (C3A treated with steroid),human C3A liver cells; Clone ID 3973887,−0.91 log2
same,Ave DE [log2] (C3A treated with steroid),human C3A liver cells; Clone ID 4087621,0.89 log2
same,Ave DE [log2] (C3A treated with steroid),human C3A liver cells; Clone ID 4215034,1.13 log2
same,Ave DE [log2] (C3A treated with steroid),human C3A liver cells; Clone ID 4253663,−0.70 log2
same,Ave DE [log2] (C3A treated with steroid),human C3A liver cells; Clone ID 4284270,−0.70 log2
same,Ave DE [log2] (C3A treated with steroid),human C3A liver cells; Clone ID 4855265,1.00 log2
same,Ave DE [log2] (C3A treated with steroid),human C3A liver cells; Clone ID 4863677,1.09 log2
same,Ave DE [log2] (C3A treated with steroid),human C3A liver cells; Clone ID 4894508,−0.93 log2
same,Ave DE [log2] (C3A treated with steroid),human C3A liver cells; Clone ID 5091002,−1.13 log2
same,anti-inflammatory and vasoconstrictive effects relative to hydrocortisone,[1],5000 times greater
